According to PubChem BioAssay AID2305 (GlaxoSmithKline (GSK), 2010):

Each molecule was assayed on P. falciparum 3D7 growth, pLDH absorbance (assay: blood-stage malaria parasite growth potency – strain 3D7, dose response (AID 2305)).

Compared with O=C(C=Cc1ccc(C(=O)Nc2ccc(C3=NCCN3)cc2)cc1)Nc1ccc(C2=NCCN2)cc1, CCOC(=O)c1ccc(NC(=O)Nc2cccc(-c3cccc(-c4nc5ccc(F)cc5[nH]4)c3)c2)cc1 is 3-fold higher in IC50: 30 nM for the first, 90 nM for the second.

CCCCn1c(Sc2ccc(C#N)c([N+](=O)[O-])c2)nnc1-c1cc(OC)cc(OC)c1 and COc1ccc(C=NNc2cc(C)nc3ccc(OC)cc23)c(OC)c1 are within 1.5-fold of each other in IC50: 820 nM for the first, 780 nM for the second.

Cc1cccc2[nH]c(-c3cccc(-c4cccc(CN5CCC(CO)CC5)c4)c3)nc12 and Cc1cccc2[nH]c(-c3cccc(-c4cccc(CNCC5CCCO5)c4)c3)nc12 (configuration not stated) are within 1.5-fold of each other in IC50: 720 nM for the first, 600 nM for the second.

Cc1cc(-c2cccc3c(C(=O)N4CCc5cc6nccc(N7CCCN(C)CC7)c6cc54)cccc23)cc(C)n1 and CN1CCN(c2ccnc3ccc(NC(=O)Nc4ccc(-c5ccncc5)c5ccccc45)cc23)CC1 are within 1.5-fold of each other in IC50: 440 nM for the first, 310 nM for the second.

Cc1cc(N[C@@H](Cc2ccccc2)C(=O)NCc2cccc(F)c2)nc(NCC2CCCCC2)n1 and Cc1cccc(CNc2nc(C)cc(NCCC(=O)NCCOc3ccccc3)n2)c1 are within 1.5-fold of each other in IC50: 850 nM for the first, 870 nM for the second.

COc1nc2c(N3CCN(CCNCc4ccc5c(n4)NC(=O)CO5)CC3)ccnc2cc1F and COc1cc(C(=O)NCCCN2CCN(c3cc(Cl)ccc3OC)CC2)ccc1-c1nc2cc(Cl)c(Cl)cc2[nH]1 are within 1.5-fold of each other in IC50: 760 nM for the first, 730 nM for the second.

First: CN(C)c1cc(NC(=O)Nc2ccc(SC(F)(F)F)cc2)c2ccccc2n1
Second: CN(C)C(CNC(=O)c1cc(-c2ccncc2)c(-c2ccc(NC(=O)Nc3cccc(F)c3)cc2)o1)c1ccccc1 (configuration not stated)
The IC50 of the first is 5.5-fold lower: 140 nM for the first, 770 nM for the second. The first is the more potent here.

Fc1ccc(N(c2nc(-c3cc(F)cc(C(F)(F)F)c3)cs2)C2CCNCC2)cc1 and Cc1cc(N2CCC(NS(=O)(=O)c3ccc(F)cc3)CC2)nc(Nc2cccc(C#N)c2)n1 are within 1.5-fold of each other in IC50: 960 nM for the first, 650 nM for the second.

CC(Cc1ccc(S(=O)(=O)N(C(C)C)C(C)C)cc1)NCC(O)c1cccc(C(F)(F)F)c1 (configuration not stated) and CCCCCN1CCC(NS(=O)(=O)c2cccc(C(=O)Nc3ccc(C(F)(F)F)cc3)c2)C1 (configuration not stated) are within 1.5-fold of each other in IC50: 690 nM for the first, 800 nM for the second.

First: Nc1nc(N)c2c(Oc3cccnc3)cccc2n1
Second: Clc1ccc(CNc2nc(NCCc3cnc[nH]3)nc(NC3CCCCC3)n2)cc1
The IC50 of the first is 4.2-fold higher: 890 nM for the first, 210 nM for the second.

Compared with O=C(Cc1cnc[nH]1)Nc1ccc(-c2cccc(-c3nc4ccc(C(F)(F)F)cc4[nH]3)c2)cc1, CC(=O)Nc1cc(C(=O)Nc2cccc(-c3cccc(-c4nc5c(C)cccc5[nH]4)c3)c2)ccc1C is 2.2-fold lower in IC50: 740 nM for the first, 330 nM for the second.

COc1cc(C(=O)N2COCC(CCCN3CCC(N4CCCC4)CC3)(c3ccc(Cl)c(Cl)c3)C2)cc(OC)c1OC (configuration not stated) and Cc1cc(N2CCCCC2)nc2ccc(NC(=O)c3cncc(Br)c3)cc12 are within 1.5-fold of each other in IC50: 780 nM for the first, 720 nM for the second.

Going from Cc1c(F)cc(C(=O)NC2CC2)cc1-c1ccc2c(cnn2S(=O)(=O)c2ccc(Cl)s2)c1 to CN1CCN(c2cc3c(Nc4ccc5c(cnn5Cc5ccccc5)c4)ncnc3cn2)CC1, the IC50 rises from 390 nM to 1130 nM (2.9-fold).

Going from CCc1c(CCNCCCCCCNCc2ccc3c(c2CC)OCO3)ccc(OC)c1OC to Cc1cc(CNCCCCCCCNCc2cccc([N+](=O)[O-])c2)ccc1O, the IC50 rises from 250 nM to 640 nM (2.6-fold). The first is the more potent here.

FC(F)(F)c1ccc(COc2cc(Cl)ccc2Cn2ccnc2)cc1 and CS(=O)(=O)CCNCc1cccc(-c2cc3c(Nc4ccc(OCc5ccccc5)cc4)ncnc3cn2)c1 are within 1.5-fold of each other in IC50: 650 nM for the first, 730 nM for the second.

O=C(c1cc(C(=O)NC2CCCCC2)c(=O)n(C2CCCCC2)c1)c1cc(F)ccc1O and Cc1cccc(-n2c(=O)c3c4c(sc3n3c(SCCC(C)C)nnc23)CCCC4)c1 are within 1.5-fold of each other in IC50: 630 nM for the first, 760 nM for the second.

CCCCNCc1ccc(-c2nc(CN(Cc3ccc(Cl)c(Cl)c3)S(=O)(=O)c3ccc(NC(C)=O)cc3)cs2)cc1 and CS(=O)(=O)NCCCNCc1cccc(-c2ccc(-c3nc4ccccc4[nH]3)s2)c1 are within 1.5-fold of each other in IC50: 1030 nM for the first, 1080 nM for the second.

Oc1cccc(-c2nc(-c3ccccc3)c(-c3ccc4oc5ccc(-c6[nH]c(-c7cccc(O)c7)nc6-c6ccccc6)cc5c4c3)[nH]2)c1 and CN1CCN(c2ccc(-c3cc(-c4ccncc4)c(-c4ccc(Cl)c(O)c4)o3)cc2)CC1 are within 1.5-fold of each other in IC50: 790 nM for the first, 740 nM for the second.

Cc1cc(N[C@@H](CC(C)C)C(=O)Nc2ccccc2)nc(Nc2ccccc2)n1 showed an IC50 of 730 nM.
